# Tests used:
# motor neurons = test: Motor neuron survival in SOD1G93A mutant mice; type: in vivo, mouse
# Method: To determine whether c29 could reduce neuron death in a motor neuron mouse model, 60 day postnatal SOD1G93A mutant mice were injected subcutaneously by osmotic pump with 5 mg/kg of TAT-c29, scrambled peptide, or the peptide vehicle. After 115 days postnatal, neuron survival in the […] was determined.
# [1] = Long term potentiation (LTP) in the hippocampus in vivo; set-up: species or system mouse
# Text: In further support of this, LTP was induced in mice by standard methods, as previously described: Kameda et al. Transl Psychiatry. 2012 Jan. 31; 2:e72. Activation of latent precursors in the hippocampus is dependent on long-term potentiation. […] BDNF acting via TrkB is well established to enhance this type of synaptic activity, including specifically hippocampal late-phase LTP at CA1-CA3 synapses (as measured here), and mice with reduced BDNF secretion show deficits in this LTP (e.g. Y. Lu et al., 2008; An et al., 2008; Ninan et al., 2010). […] In FIG. 13, c29 10 mg/kg: n=3 animals; c29 5 mg/kg: n=2 animals; scrambled 10 mg/kg: n=3 animals, c57: n=2 animals.
# [2] = system: C7-8 spinal cord motor neurons; test: Motor neuron axotomy (median and ulnar nerve) in neonatal rat; type: in vivo; conditions: four day old rat, unilateral axotomy of the ulnar nerve, FIG. 7E
# Method: Median and ulnar nerve axotomy was performed on 4 day-old Wistar rat pups as previously described (Cheema et al., 1996). Peptides (c29 and vehicle only; 100 nM) were applied via a 1 mm^3 cube of pluronic gel foam that was sutured to the proximal axonal stump (Cheema et al., 1996). After 5 days the animals were perfused with a 4% solution of paraformaldehyde in phosphate buffer. Cervical spinal cords were removed, after which serial sections were cut at 40 μm, mounted onto gelatin-coated slides and stained in 0.1% cresyl violet. Details of the counting procedure have been described previously (Cheema et al., 1994).
# We next investigated whether c29 could prevent motor neuron death following growth factor withdrawal in vivo using a neonatal rat axotomy model. Following unilateral median and ulnar nerve transections of postnatal day 4 (P4) rat pups, c29 or the vehicle protein transduction domain (PTD4) was applied to the proximal site of transaction in a small cube of gel foam. After a 5-day recovery, the number of surviving C7-8 spinal cord motor neurons relative to the contralateral side was determined by histological counts. Such an axotomy causes 50% of the ipsilateral motor neurons to die (Cheema et al., 1996), with control peptide treatment having no effect on this degree of cell death (FIG. 7E, F). […]
sequence,measurement,setting,value
YARAAARNARAKRWNSCKQNKQGANSRPVNQTPPPEGEKL (TAT-c29 - Fusion of TAT with c29),enhancement of motor neuron survival,"motor neurons; 5 mg/kg subcutaneously by osmotic pump from 60 days postnatal, read at 115 days postnatal",30%
same,motor neuron number,"motor neurons; 5 mg/kg, 115 days postnatal, equivalent of wild-type",10 motor neurons per section per dorsal horn
same,LTP in the hippocampus,"[1]; 5 mg/kg I.P, after the high frequency train",transient enhancement of LTP lasting only the first 6 minutes
same,LTP in the hippocampus,"[1]; 10 mg/kg i.p., vs scrambled peptide- or vehicle-treated animals",enhanced LTP
same,protection from motor neuron loss,[2],significant protection from motor neuron loss
